According to article PMC11062899, “De novo development of small cyclic peptides that are orally bioavailable” (Nature Chemical Biology, 2023):
“And” between values parts separate entries of the source, which are not always exact repeats. Identical values can stand only once. Like-named read-outs stand apart in the source and are kept apart here.

Key:
[1] = Passive artificial membrane permeability (PAMPA);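 for Permeability% Average: top well sample relative to theoretical equilibrium sample by TIC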
rat α-thrombin = molecular target: T1, rat α-thrombin (Rattus norvegicus, UniProt P18292); assay: Protease inhibition, Ki for rat α-thrombin (fluorogenic substrate Z-Gly-Gly-Arg-AMC); format: biochemical; details: for Rat alpha thrombin inhibition, slope normalized to DMSO: replicates R1-R3
T1 construct: rat α-thrombin (Molecular Innovations) were used at final concentrations of 2 nM and 3 nM; purchased Molecular Innovations
Outline: (§1)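 Ki derived through Cheng–Prusoff from IC50s (four-parameter logistic fit) against activity of peptide-free controls. Product fluorescence was read every 3 min over 30 min at 25 °C, substrate Z-Gly-Gly-Arg-AMC at 50 μM. Enzyme was 2 nM human or 3 nM rat α-thrombin, pH 7.4 buffer.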

human α-thrombin = human α-thrombin (Homo sapiens, UniProt P00734); assay: Protease inhibition, Ki for human α-thrombin (fluorogenic substrate Z-Gly-Gly-Arg-AMC); format: biochemical; details: for Human alpha thrombin inhibition, slope normalized to DMSO: replicates R1-R3
Outline: as §1

[2] = peptide concentration 1.00E+02 uM
[3] = peptide concentration 1.19E-05 uM
[4] = peptide concentration 1.22E-02 uM
[5] = peptide concentration 1.25E+01 uM
[6] = peptide concentration 1.53E-03 uM
[7] = peptide concentration 1.56E+00 uM
[8] = peptide concentration 1.91E-04 uM
[9] = peptide concentration 1.95E-01 uM
[10] = peptide concentration 2.38E-05 uM
[11] = peptide concentration 2.44E-02 uM
[12] = peptide concentration 2.50E+01 uM
[13] = peptide concentration 3.05E-03 uM
[14] = peptide concentration 3.12E+00 uM
[15] = peptide concentration 3.81E-04 uM
[16] = peptide concentration 3.91E-01 uM
[17] = peptide concentration 4.77E-05 uM
[18] = peptide concentration 4.88E-02 uM
[19] = peptide concentration 5.00E+01 uM
[20] = peptide concentration 6.10E-03 uM
[21] = peptide concentration 6.25E+00 uM
[22] = peptide concentration 7.63E-04 uM
[23] = peptide concentration 7.81E-01 uM
[24] = peptide concentration 9.54E-05 uM
[25] = peptide concentration 9.77E-02 uM

For `O=C1C[C@H]2CCCN2C(=O)[C@H](Cc2ccccc2)NC(=O)[C@@H](NC(=O)c2ccc(Cl)s2)CCC=CCCCN1` [compound 41], the “PAMPA permeability: % permeability” value ([1]; 50 μM, 12–18 h, acceptor concentration relative to equilibrium) was 64 ± 11%, the “Permeability% (single replicates R1–R3)” value ([1]; 50 μM, 13 h (Fig. 5d)) was 76.34% and 63.06% and 53.71% and the “Permeability% Average” value ([1]; 50 μM, 13 h (Fig. 5d)) was 64.4%. The Papp at 50 μM ([1]; PAMPA, pH 7.4) was 9.33 ×10⁻⁶ cm/s, the Ki (rat α-thrombin; average of R1-R3, read-out: Rat alpha thrombin inhibition, Ki Average) was 0.18 µM and the “Rat alpha thrombin inhibition, slope normalized to DMSO” value (rat α-thrombin; [2]) was 5.3 and 5.7 and 4.1. The “Rat alpha thrombin inhibition, slope normalized to DMSO” value (rat α-thrombin; [3]) was 101.7 and 102.1 and 101.8, the “Rat alpha thrombin inhibition, slope normalized to DMSO” value (rat α-thrombin; [4]) was 87.5 and 92.0 and 84.9 and the “Rat alpha thrombin inhibition, slope normalized to DMSO” value (rat α-thrombin; [5]) was 9.2 and 8.7 and 7.8. The “Rat alpha thrombin inhibition, slope normalized to DMSO” value (rat α-thrombin; [6]) was 94.8 and 97.7 and 92.4, the “Rat alpha thrombin inhibition, slope normalized to DMSO” value (rat α-thrombin; [7]) was 25.0 and 25.1 and 31.0 and the “Rat alpha thrombin inhibition, slope normalized to DMSO” value (rat α-thrombin; [8]) was 106.1 and 99.6 and 88.4. For the same molecule, the “Rat alpha thrombin inhibition, slope normalized to DMSO” value (rat α-thrombin; [9]) was 69.0 and 50.2 and 49.8, the “Rat alpha thrombin inhibition, slope normalized to DMSO” value (rat α-thrombin; [10]) was 103.2 and 98.1 and 102.8 and the “Rat alpha thrombin inhibition, slope normalized to DMSO” value (rat α-thrombin; [11]) was 92.3 and 89.1 and 86.1. The “Rat alpha thrombin inhibition, slope normalized to DMSO” value (rat α-thrombin; [12]) was 4.2 and 6.8 and 8.8, the “Rat alpha thrombin inhibition, slope normalized to DMSO” value (rat α-thrombin; [13]) was 99.2 and 99.8 and 88.1 and the “Rat alpha thrombin inhibition, slope normalized to DMSO” value (rat α-thrombin; [14]) was 8.2 and 23.7 and 18.2. For the same molecule, the “Rat alpha thrombin inhibition, slope normalized to DMSO” value (rat α-thrombin; [15]) was 107.3 and 92.0 and 81.7, the “Rat alpha thrombin inhibition, slope normalized to DMSO” value (rat α-thrombin; [16]) was 38.0 and 46.4 and 45.2 and the “Rat alpha thrombin inhibition, slope normalized to DMSO” value (rat α-thrombin; [17]) was 102.3 and 101.4 and 86.4. For the same molecule, the “Rat alpha thrombin inhibition, slope normalized to DMSO” value (rat α-thrombin; [18]) was 83.5 and 87.2 and 79.0, the “Rat alpha thrombin inhibition, slope normalized to DMSO” value (rat α-thrombin; [19]) was 3.7 and 8.5 and 7.9 and the “Rat alpha thrombin inhibition, slope normalized to DMSO” value (rat α-thrombin; [20]) was 92.6 and 94.8 and 84.9. For the same molecule, the “Rat alpha thrombin inhibition, slope normalized to DMSO” value (rat α-thrombin; [21]) was 13.6 and 12.8 and 13.7, the “Rat alpha thrombin inhibition, slope normalized to DMSO” value (rat α-thrombin; [22]) was 102.3 and 100.6 and 67.7 and the “Rat alpha thrombin inhibition, slope normalized to DMSO” value (rat α-thrombin; [23]) was 42.8 and 23.4 and 43.3. The “Rat alpha thrombin inhibition, slope normalized to DMSO” value (rat α-thrombin; [24]) was 92.9 and 92.2 and 96.6, the “Rat alpha thrombin inhibition, slope normalized to DMSO” value (rat α-thrombin; [25]) was 73.2 and 69.4 and 67.8 and the IC50 (rat α-thrombin; single replicates R1-R3, read-out: Rat alpha thrombin inhibition, IC50) was 0.326 µM and 0.228 µM and 0.42 µM. For the same molecule, the Ki (rat α-thrombin; single replicates R1-R3, read-out: Rat alpha thrombin inhibition, Ki) was 180 nM (2×) and 126 nM (2×) and 232 nM (2×), the Ki (human α-thrombin; average of R1-R3, read-out: Human alpha thrombin inhibition, Ki Average) was 1.57 µM and the “Human alpha thrombin inhibition, slope normalized to DMSO” value (human α-thrombin; [2]) was 9.8 and 10.5 and 10.6. The “Human alpha thrombin inhibition, slope normalized to DMSO” value (human α-thrombin; [3]) was 108.3 and 123.2 and 86.4, the “Human alpha thrombin inhibition, slope normalized to DMSO” value (human α-thrombin; [4]) was 81.6 and 60.4 and 71.9 and the “Human alpha thrombin inhibition, slope normalized to DMSO” value (human α-thrombin; [5]) was 16.2 and 18.0 and 13.2. The “Human alpha thrombin inhibition, slope normalized to DMSO” value (human α-thrombin; [6]) was 102.7 and 105.3 and 96.0, the “Human alpha thrombin inhibition, slope normalized to DMSO” value (human α-thrombin; [7]) was 60.1 and 45.1 and 57.4 and the “Human alpha thrombin inhibition, slope normalized to DMSO” value (human α-thrombin; [8]) was 110.2 and 100.0 and 95.6. For the same molecule, the “Human alpha thrombin inhibition, slope normalized to DMSO” value (human α-thrombin; [9]) was 90.5 and 54.5 and 66.4, the “Human alpha thrombin inhibition, slope normalized to DMSO” value (human α-thrombin; [10]) was 111.1 and 102.0 and 98.3 and the “Human alpha thrombin inhibition, slope normalized to DMSO” value (human α-thrombin; [11]) was 60.0 and 83.9 and 99.7. The “Human alpha thrombin inhibition, slope normalized to DMSO” value (human α-thrombin; [12]) was 16.8 and 4.9 and 12.0, the “Human alpha thrombin inhibition, slope normalized to DMSO” value (human α-thrombin; [13]) was 65.1 and 103.9 and 92.0 and the “Human alpha thrombin inhibition, slope normalized to DMSO” value (human α-thrombin; [14]) was 47.1 and 40.3 and 37.6. For the same molecule, the “Human alpha thrombin inhibition, slope normalized to DMSO” value (human α-thrombin; [15]) was 113.9 and 97.1 and 98.1, the “Human alpha thrombin inhibition, slope normalized to DMSO” value (human α-thrombin; [16]) was 59.1 and 81.1 and 60.5 and the “Human alpha thrombin inhibition, slope normalized to DMSO” value (human α-thrombin; [17]) was 106.6 and 104.5 and 98.0. The “Human alpha thrombin inhibition, slope normalized to DMSO” value (human α-thrombin; [18]) was 96.4 and 58.3 and 94.8, the “Human alpha thrombin inhibition, slope normalized to DMSO” value (human α-thrombin; [19]) was 14.2 and 14.0 and 12.9 and the “Human alpha thrombin inhibition, slope normalized to DMSO” value (human α-thrombin; [20]) was 78.1 and 71.3 and 72.1. The “Human alpha thrombin inhibition, slope normalized to DMSO” value (human α-thrombin; [21]) was 15.4 and 28.4 and 22.2, the “Human alpha thrombin inhibition, slope normalized to DMSO” value (human α-thrombin; [22]) was 61.4 and 105.9 and 50.7 and the “Human alpha thrombin inhibition, slope normalized to DMSO” value (human α-thrombin; [23]) was 75.8 and 62.9 and 64.9. For the same molecule, the “Human alpha thrombin inhibition, slope normalized to DMSO” value (human α-thrombin; [24]) was 104.3 and 61.9 and 103.5, the “Human alpha thrombin inhibition, slope normalized to DMSO” value (human α-thrombin; [25]) was 84.6 and 105.9 and 85.2 and the IC50 (human α-thrombin; single replicates R1-R3, read-out: Human alpha thrombin inhibition, IC50) was 2.7 µM and 1.73 µM and 1.69 µM. The Ki (human α-thrombin; single replicates R1-R3, read-out: Human alpha thrombin inhibition, Ki) was 2.08 µM (2×) and 1.34 µM (2×) and 1.3 µM (2×).
